# Results published in ChEMBL document CHEMBL3045257, “Pyrenocines J-M: four new pyrenocines from the endophytic fungus, Phomopsis sp” (2012).
# Experiments:
# Escherichia coli = assay: Antimicrobial activity against Escherichia coli by agar diffusion test; format: functional
# Microbotryum violaceum = assay: Antifungal activity against Microbotryum violaceum by agar diffusion test; format: functional
# Priestia megaterium = assay: Antimicrobial activity against Bacillus megaterium by agar diffusion test; format: functional
# [Chlorella] fusca = Antialgal activity against 'Chlorella' fusca by agar diffusion test; format: functional, Scenedesmus fuscus
# Botrytis cinerea = assay: Antifungal activity against Botryotinia fuckeliana by agar diffusion test; format: functional
# Pyricularia oryzae = assay: Antifungal activity against Magnaporthe oryzae by agar diffusion test; format: functional
# Phytophthora infestans = assay: Antifungal activity against Phytophthora infestans by agar diffusion test; format: functional
# Zymoseptoria tritici = assay: Antifungal activity against Zymoseptoria tritici by agar diffusion test; format: functional
Compound,inhibition zone (IZ) (Escherichia coli) [mm],inhibition zone (IZ) (Microbotryum violaceum) [mm],inhibition zone (IZ) (Priestia megaterium) [mm],inhibition zone (IZ) ([Chlorella] fusca) [mm],inhibition zone (IZ) ([Chlorella] fusca; Scenedesmus fuscus) [mm],inhibition zone (IZ) (Botrytis cinerea) [mm],inhibition zone (IZ) (Pyricularia oryzae) [mm],inhibition zone (IZ) (Phytophthora infestans) [mm],inhibition zone (IZ) (Zymoseptoria tritici) [mm]
C[C@@H]1C[C@@H]([C@H](O)CC2CC(=O)NC(=O)C2)C(=O)[C@@H](C)C1 [CYCLOHEXIMIDE],0,50,0,35,,,,,
NYSTATIN,0,20,0,,0,,,,
CCC[C@@H](Cc1oc(=O)cc(OC)c1CO)OC(C)=O [PYRENOCINE L],10,0,9,10,,0,0,0,0
COc1cc(=O)oc2c1CO[C@@H](CC(C)=O)C2 [PYRENOCINE K],6,5,8,6,,0,0,0,6
CCCCCc1oc(=O)cc(OC)c1CO [PYRENOCINE M],5,5,9,5,,0,0,0,6
CC1(C)S[C@@H]2[C@H](NC(=O)Cc3ccccc3)C(=O)N2[C@H]1C(=O)O [PENICILLIN G],14,0,18,0,,,,,
CN(C)[C@@H]1C(O)=C(C(N)=O)C(=O)[C@@]2(O)C(O)=C3C(=O)c4c(O)cccc4[C@@](C)(O)[C@H]3C[C@@H]12 [TETRACYCLINE],18,0,18,10,,,,,
